Experimental findings from patent publication US6355785B1, “Guanosine-rich oligonucleotide integrase inhibitors” (Aronex Pharmaceuticals, Inc., priority 1993, dated 2002) are described below.

“Also recorded” adds a separate entry of the source. Read-outs that look alike come from different tables or passages of the source. Bounds are passed on as bounds.

For data set [1], the system named is CEM-SS. Type of data set: cell-based, human. The method, then: Cytotoxicity Analysis. The cytotoxicity of T30177 was assayed as described above. […] The degree of cell proliferation was determined according to the manufacturer's instructions.
Cytotoxicity Assays. The cytotoxicity of T30177 was determined using several different cell lines and primary human cells as described above. The cytotoxicity profile obtained for log phase growing cells was variable depending upon the cell line used, while the slower growing PBMCs, PBLs, and macrophages all tolerated the compound at concentrations exceeding 100 μM as monitored using the trypan blue exclusion, [^3H]thymidine uptake, or [^3H]leucine uptake techniques.

Data set [2] relates to HIV-1IIIB. As to the kind of experiment: Long term suppression assay, MT-4 cells. Type of data set: cell-based.
Details of data set [3]: species or system cynomolgus monkeys. The settings on record: cynomolgus monkey, in vivo; for AR177 plasma (CMAX): iv. The method, then: Dosing. Twelve experimentally naive cynomolgus monkeys were assigned to four groups of three animals each. Prior to dosing, each animal was lightly sedated with a combination of ketamine (1 0 mg/kg) and diazepam (0.5 mg/kg), and a catheter was introduced into the femoral artery for recording central arterial pressure. Monkeys were given a single intravenous infusion of 5, 20, or 50 mg AR177/kg or saline over ten minutes through a cephalic vein catheter using a Harvard infusion pump. Arterial blood samples were drawn at −10, +10, +20, +40, +60 and +120 minutes relative to the initiation of infusion into EDTA-containing tubes for hematology, complement factors, coagulation assay, serum chemistry, and plasma AR177 determination. At 24 hours post-infusion, blood was drawn via the femoral vein into EDTA-containing tubes for these same parameters. The concentration of AR177 in dosing solutions was confirmed post experiment by absorbance at 280 nm on a spectrophotometer. For the determination of AR177 by HPLC, the plasma fraction was obtained by low speed centrifugation of blood, and stored at −20° C. until used. Electrocardiograms (ECGs), central pressure, and heart rate were recorded continuously for 120 minutes following the initiation of doing. Table E-1 summarizes the study design. The animals were observed twice daily pharmacotoxic signs and general health beginning two days before dosing and for seven days following dosing. The monkeys were not necropsied at the end of the study.
HPLC analysis of AR177 plasma concentration. AR177 was assayed in the plasma using an anion-exchange HPLC method on a Waters HPLC system with a 626 pump, 996 photodiode array detector, 717 autosampler and Millennium system software controlled by an NEC Image 466 computer. Buffer A consisted of 0.1 M Tris base, 20% methanol, pH 12, and Buffer B consisted of 0.1 M Tris base, 1.0 M NaBr, pH 12. The anion-exchange column (Gen-Pak Fax column) was equilibrated at 80% buffer A/20% buffer B for 30 minutes before each HPLC run. Fifty microliters of 0.2˜filtered, neat plasma were analyzed per run. The elusion conditions were: a) five-minute isoaatic run at 80% A/20% B. during which the majority of the plasma proteins eluted, b) 25-minute linear gradient to 30% A/70% B during which AR177 elutes, c) five-minute Socratic run at 30% A/70% B. d) one-minute linear gradient to 100% B. e) two-minute run at 100% B for column clean-up, and fl two-minute linear gradient to 70% A/30% B for the step in the HPLC clean-up. The high pH (12) of the elusion buffers was necessary to dissociate AR177 from tissue constituents, which bind AR177 tightly around physiological pH. AR177 is completely stable at pH 12. This method can clearly distinguish between the full length AR177 and n-1, n-2, etc. species, which are potential metabolic products. The ultraviolet detection wavelength was 260 nm. The flow rate was 0.5 mL/minute in all steps. Column clean up between runs was performed by a 500 pL bolus injection of 0.1 M Tris base, 2 M NaCl, pH 10.5, followed by: a) ten-minute linear gradient to 60% A/40% B. b) one-minute linear gradient to 100% B. c) a three-minute isocratic run at 100% B and d) one-minute linear gradient to 80% A/20% B.
A standard curve was generated by spiking AR177 into cynomolgus monkey plasma in order to achieve concentrations of 0.04 to 128 μ/mL. The plasma standards and unspiked plasma (control) were run on the anion-exchange HPLC column using e above conditions. The Waters Millennium software was used to determine the area under the peak for each AR177 standard at 260 nm. The HPLC peak area versus AR177 concentration was plotted using Cricket Graph III 1.5.1 software. There were one to three HPLC replicate runs per AR177 standard. The limit of quantitation was 25 ng/mL (50 pL injection), whereas the limit of detection was 5 ng/mL (50 pL injection). […]

Details of data set [4]: species or system cynomolgus monkeys. The settings on record: cynomolgus monkey, in vivo. The method, then: Serum chemistry parameters. Serum chemistry was determined pre-study, on day 24 (one day after the 12th dose), and on day 37 in the recovery monkeys. The following were determined sodium, potassium, chloride, carbon dioxide, total bilirubin, direct bilirubin, indirect bilirubin alkaline phosphatase, lactate dehydrogenase, aspartate aminotransferase, alanine aminotransferase, gammaglutamyltransferase, calcium, phosphorus, glucose, urea nitrogen, creatinine, uric acid total protein, albumin, globulin, cholesterol and triglycerides. Serum chemistry was determined at Sierra Nevada Laboratories (Reno, Nev.).

Data set [5] concerns HIV-1SKI. As to the kind of experiment: Analysis of replicated viral DNA (Hirt fractions), CEM-SS cells. The class given is cell-based. The protocol:
Analysis of viral replication. CEM-SS cells (2×10^7) were infected with HIV-1SKI (MOI of I) for 45 minutes at 37 ° C. with gentle mixing. Following virus attachment, the cells were gently pelleted, washed twice and resuspended in complete tissue culture medium. The cells were then divided into aliquots, treated with various concentrations of drug and placed in T75 culture flasks. The cells were incubated at 37° C. for 18-20 hours and then harvested by centriguation. To extract nucleic acids for analysis of HIV-1 integration low- and high-molecular weight DNA were prepared from HIV-1 infected cells (untreated or treated with increasing concentrations of drug) according to the protocol originally described by Hirt (Hirt, B. J., J. Mol. Biol. 26:365-369 (1967)) and modified by Gowda et al., Gowda, et al., J. Immunol. 142:773-780 (1989).
DNA (300 ng), obtained from the low-molecular weight Hirt fractions, was used as the template in PCR analysis undergoing a 30 cycle amplification reaction using the conditions described by Steinkasserer et al. (Steinkasserer, et al., J. Virol. 69:814-824 (1995)). […] PCR products were separated by agarose gel electrophoresis and visualized by ethidium bromide staining.

The conditions of data set [6]: cynomolgus monkey, up to 236 ug/mL.

In data set [1], “5′-gtggtgggtgggtgggt-3′ (GTGGTGGGTGGGTGGGT; phosphorothioate termini, further chemistry not given here) [T30177, pPT version of parent compound I100-15, 17 mer]” returned a CC50 of 92 ± 3 µM, a TC25 of 50.8 ± 3.2 µM and a TC95 of more than 100 µM. Further, the “viral DNA (PCR) 11 days after removal of drug” value in data set [2] was “unable to detect the presence of viral DNA; also recorded: no detectable viral cDNA”. The “protection of treated cells from reinfection with HIV-1IIIB” value in data set [2] (100-fold over IC50, 4 days) is “no protection of cells from the second round of viral infection”. Further, in data set [3], the initial plasma half-life was 20 to 30 min, the “initial volume of distribution (Vd) of the three doses” value lay within 200 to 248 mL, the metabolites in plasma result is “No metabolites” and the terminal plasma half-life result is “approximately 24 hours”. Moreover, in data set [3] (5 mg/kg), the Vd turned out to be 247.6 ± 21.4 mL and the “AR177 plasma (CMAX)” value was 83.2 ± 7.2 µg/mL. In data set [3] (20 mg/kg), the Vd is 184.5 ± 14.3 mL and the “AR177 plasma (CMAX)” value came to 397.8 ± 30.8 µg/mL. For the same substance, in data set [3] (50 mg/kg), the Vd was 200.7 ± 56.4 mL and the “AR177 plasma (CMAX)” value turned out to be 804.7 ± 226.3 µg/mL. For the same substance, the “serum chemistry or urinalysis parameters” value in data set [4] was “no treatment-related changes”.
With “5′-gtggtgggtgggtgggt-3′ [T30177] (GTGGTGGGTGGGTGGGT; phosphorothioate termini, further chemistry not given here)”, the “extent of viral replication (PCR of Hirt DNA)” value in data set [5] is reported as “up to an including the production of 2-LTR circles”. Further, the “complement CH50” value in data set [6] is given as “no effect”.
